Experimental data from patent US20050282781A1, “Compositions of stable bioactive metabolites of docosahexaenoic (DHA) and eicosapentaenoic (EPA) acids” (priority 2004, published 2005).
Marks after values point to notes of the source that are not given here.

What was measured:
open-field test in rats = assay: Open-field test (anxiogenic test model); format: in vivo, rat; parameters: Immobility: unit not given here
Experimental: This was determined according to a previously described method (Bhattacharya et al. 1998).
MDMA (5 and 10 mg/Kg, i.p.) produced a dose-related decrease in the number of squares crossed and rears, with concomitant immobility and increased defecation; these effects are qualitatively similar to those induced by yohimbine (2 mg/Kg, i.p. in 0.9% saline as the vehicle). DBPs (1 and 2, 1:1 mixture 10 mg/Kg, p.o. day-1, for 7 days) were administered prior to MDMA or yohimbine administration, on the 7th day, 1 hour after the last DBPs administration (p.o.). Similar anti-anxiogenic effects were observed on pretreatment of MDMA, followed by DBPs.

mice = assay: Forced swimming immobility (behavioral despair), anti-stress; format: in vivo; conditions: in these doses (50 mg/Kg p.o. × 4 days); statistically insignificant
Experimental: Rodents when forced to swim in a restricted place, from which they cannot escape, become immobile after an initial period of vigorous activity. The observed immobility signified behavioral despair, resembling a state of mental depression. Behavioral depression is a common consequence of stress. The significant anti-stress effects of DBPs (1 and 2, Scheme-II), was assessed by the considerable reduction in the period of immobility in the test compound treated mice.

[1] = tested on: increased 5-HT release activity in MDMA-treated rats; assay: MDMA-withdrawal increased 5-HT release; format: in vivo, rat; conditions: post-treatment in MDMA-treated rats
From the text: EPA or DHA would not be truly effective for this purpose. There is evidence that presynaptic serotonergic, but not dopaminergic, mechanisms are involved in the enactogen-like discriminative stimulus properties of MDMA. MDMA increases the number of rat brain 5-hydroxytryptamine 5-HT1A receptors and induces increased release of 5-HT from presynaptic terminals. The MDMA-withdrawal syndrome includes this increased 5-HT release activity in rats.

[2] = tested on: pylorus ligated albino rats; assay: Anti-ulcerogenic effect in pylorus ligated rats (ulcer index, gastric juice); format: in vivo
From the text: Mixture of DBPs (1:1, 1 and 2, Scheme-II), on'the other hand, increased the contents of individual and the total carbohydrates and also the total carbohydrate/protein ratio in the gastric juice. The ratio of the total carbohydrate/protein was taken as the index of the mucin activity.
Another essential criterion of determining the status of mucosal resistance/barrier is the state of mucus secretion. DBPs increase not only the mucosal cellular mucus, but also secrete more dissolved mucus in the gastric juice as evidenced by their effects on gastric juice carbohydrates and on the increased carbohydrate/protein ratio.

active learning in rats = assay: Active learning (learning acquisition), number of trials to reach criterion; format: in vivo, rat; conditions: p.o. once daily 45 min before trial for 4 days, mean ± SEM
From the text: In the learning acquisition paradigm, in the control group, the number of shocked and unshocked trials required to reach the criterion of 10 correct conditional responses, were 14.33 and 43.70, respectively.

[3] = Oral EPA or DHA to albino rats, blood levels of DBPs and benzoic acid by HPLC and GC-MS; format: in vivo
Experimental: Oral administration of EPA to albino rats and tracking the blood level of DBPs by HPLC were conducted. […] Cells and plasma were separated by centrifugation and extracted separately with methanol before (BH) and after acidic (HCl) hydrolysis (AH). These extracts were subjected to HPLC, when DBPs (3-hydroxy- and 3,8-dihydroxydibenzo-α-pyrones) so formed were tracked and estimated. FIGS. 2A and 2B show the turnover of EPA into 3,8-dihydroxydibenzo-α-pyrone.
Blood samples (2.5 ml) were collected from albino rats (200-220 grams, b.w.) by retro-orbital puncture, in heparinized tubes and centrifuged (3000 rpm) for 5 min. The supernatant (plasma, 0.4 ml) was collected and extracted with methanol (5 ml×3), at 60° C. by sonication for 10 min each. The combined methanolic extract was filtered and evaporated in vacuo. The residue so obtained was subjected to HPLC and GC-MS (as TMS derivatives) analyses. The presence of both 3-hydroxy-(str. 1, Scheme-II) and 3,8-dihydroxy-dibenzo-α-pyrone (str. 2, Scheme-II) was detected. Thus, the two DBPs are the normal metabolites of the albino rats. Their normal concentrations (control value) in the experimental rat blood were estimated at 0.170±0.052 μg/ml (str. 1, Scheme-II) and 0.100±0.023 μg/ml (str. 2, Scheme-II).
In the EPA treatment experiment to the above animals, EPA (25 mg, in propylene glycol, 0.5 ml) per rat was fed through the oral route. […]

[4] = tested on: CS-induced alteration of adrenal gland ascorbic acid and corticosterone concentrations and plasma corticosterone level; assay: Chronic stress induced alteration of adrenal ascorbic acid, adrenal corticosterone and plasma corticosterone; format: in vivo, albino rats
Experimental: The study is also relevant in view of the projected links of EPA and DHA to mental development in children which is severely retarded by chronic stress. Rats were randomly assigned to control or stress groups. Those assigned to the stress groups were subjected to 1 hour foot-shock, through a grid floor, every day for 14 days. […] Control animals received only the vehicle in either unstressed or the stressed rats for the same period in a volume of 2 ml/Kg, p.o. […] CS caused marked depletion of adrenal gland ascorbic acid and corticosterone concentrations with concomitant increase in plasma corticosterone levels. […] They had no per se effect on the indices of stress investigated (Table 3).

[5] = L-DOPA-sparing by singlet oxygen quenching (Rose Bengal plates); format: biochemical; conditions: for Percent inhibition of L-DOPA oxidation (mean ± SEM): 30 min exposure to 1O2, Pi buffer pH 7.2
From the text: A comparative study of the antioxidant defence provided by the three compounds, DBPs, EPA and DHA, was made. The reason for selection of this test (antioxidant-profile) is, that, agents that can regulate systemic production and interactions of reactive oxygen species, like singlet oxygen, superoxide radical and hydroxyl radical, can provide surveillance umbrella to living organisms against ‘oxidative stress’.
The singlet oxygen was generated on Rose Bengal-coated glass plates by illuminating with a 150-W spot-light at a distance of 30 cm, through water to filter infra-red light (Ghosal, S. and Bhattacharya, S. K. (1996). Antioxidant defence by shilajit, Indian J. Chem., 35B, 127-132).

[6] = tested on: CS-induced gastric ulceration in albino rats; assay: Chronic stress (foot-shock) induced gastric ulceration; format: in vivo
Experimental: A comparative study of DBPs (1, 2, Scheme-II; 1:1 mixture), EPA and DHA was carried out to determine their relative adaptogenic potency against chronic stress in albino rats. The study is also relevant in view of the projected links of EPA and DHA to mental development in children which is severely retarded by chronic stress.
Rats were randomly assigned to control or stress groups. Those assigned to the stress groups were subjected to 1 hour foot-shock, through a grid floor, every day for 14 days. The duration of each shock (2 mA) and the intervals between the shocks were randomly programmed between 3-5 seconds and 10-110 seconds, respectively, to make the stress unpredictable.
EPA (Aldrich), DHA (Sigma) and DBPs were separately suspended/dissolved in 0.3% carboxymethylcellulose (CMC) in distilled water and administered orally (p.o.) for 14 days, starting on day 1, 60 min. prior to electro-shock. Control animals received only the vehicle in either unstressed or the stressed rats for the same period in a volume of 2 ml/Kg, p.o. Estimations were conducted on day 14, one hour after the last stress procedure and two hours after the last test compound or vehicle was administered.
The three test compounds had, albeit in different extent, dose-related anti-ulcerogenic effect. The efficacy was in the order: DBPs>DHA>EPA (Table 2).

[7] = 5 mg/Kg p.o. for 14 days + chronic stress
[8] = 5 mg/Kg p.o., unstressed rats (per se effect)
[9] = 10 mg/Kg p.o. for 14 days + chronic stress
[10] = 10 mg/Kg p.o., unstressed rats (per se effect)
[11] = 10 mg/Kg p.o. for 7 days, prior to MDMA or yohimbine administration

| Structure (SMILES) | Number of trials to reach criterion, Shocked trials (active learning in rats; dose 2.5 mg/ml) | Number of trials to reach criterion, Unshocked trials (active learning in rats; dose 2.5 mg/ml) | Number of trials to reach criterion, Shocked trials (active learning in rats; dose 5.0 mg/ml) | Adrenal ascorbic acid [4, 7] [μg/100 mg] | Adrenal corticosterone [4, 7] [μg/100 mg] | Plasma corticosterone [4, 7] | Adrenal ascorbic acid [4, 8] [μg/100 mg] | Adrenal corticosterone [4, 8] [μg/100 mg] | Plasma corticosterone [4, 8] [µg/dL] | Adrenal ascorbic acid [4, 9] | Adrenal corticosterone [4, 9] | Plasma corticosterone [4, 9] | Adrenal ascorbic acid [4, 10] [μg/100 mg] | Adrenal corticosterone [4, 10] [μg/100 mg] | Plasma corticosterone [4, 10] [µg/dL] | No. of ulcers [6, 7] | Severity of ulcers [6, 7] | Ulcer incidence (%) [6, 7] [%] | No. of ulcers [6, 9] | Severity of ulcers [6, 9] | other results |
| --- | --- | --- | --- | --- | --- | --- | --- | --- | --- | --- | --- | --- | --- | --- | --- | --- | --- | --- | --- | --- | --- |
| COC(=O)[C@@H]1[C@H]2C[C@H]3c4[nH]c5ccccc5c4CCN3C[C@@H]2CC[C@@H]1O [Yohimbine, yohimbine] | – | – | – | – | – | – | – | – | – | – | – | – | – | – | – | – | – | – | – | – | Faecal pellets (open-field test in rats; 2 mg/Kg, i.p. in 0.9% saline): 7.5 ± 1.2; Immobility (open-field test in rats; 2 mg/Kg, i.p. in 0.9% saline): 70.2 ± 4.9; Rears (open-field test in rats; 2 mg/Kg, i.p. in 0.9% saline): 12.8 ± 4.4; Squares crossed (open-field test in rats; 2 mg/Kg, i.p. in 0.9% saline): 90.8 ± 7.4 |
| CC/C=C\C/C=C\C/C=C\C/C=C\C/C=C\CCCC(=O)O [EPA, cis-5,8,11,14,17-Eicosapentaenoic acid] | 13.82 ± 1.04 | 40.11 ± 1.88 | 12.11 ± 2.01 | 138.5 ± 18.2 | 3.0 ± 1.4 | 17.9 ± 0.9^b μg/dL | 308.8 ± 28.7 | 5.7 ± 1.4 | 15.0 ± 1.6 | 144.2 ± 14.7^b μg/100 mg | 2.9 ± 0.7^b μg/100 mg | 18.3 ± 1.8^b μg/dL | 310.5 ± 26.0 | 5.2 ± 0.8 | 15.5 ± 1.1 | 16.5 ± 3.4 | 28.3 ± 7.7 | 70 | 14.3 ± 4.4 | 26.4 ± 6.2 | anti-stress response (mice): very weak anti-stress response; prevention of MDMA-withdrawal increased 5-HT release [1]: not; anti-ulcerogenic effect ([2]; 10 mg/ml): only weak anti-ulcerogenic effects; Number of trials to reach criterion, Unshocked trials (active learning in rats; dose 5.0 mg/ml): 38.14 ± 1.92; blood level of 3,8-(OH)2-DBP (2) versus control ([3]; after 24 h of EPA treatment): higher than that of the control; blood level of 3,8-(OH)2-DBP (2) versus control ([3]; after 72 h of EPA treatment): came down to control level; antioxidant effect (1O2 quenching) ([5]; 0.1-0.4 mM): only weak antioxidant effect; Percent inhibition of L-DOPA oxidation (mean ± SEM) ([5]; L-DOPA:test compound 1:0.1 mM): 7.7 ± 1.3%; Percent inhibition of L-DOPA oxidation (mean ± SEM) ([5]; L-DOPA:test compound 1:0.4 mM): 11.3 ± 3.2%; Ulcer incidence (%) [6, 9]: 60%; Faecal pellets (open-field test in rats; [11]): 6.8 ± 3.0; Immobility (open-field test in rats; [11]): 70.1 ± 5.3; Rears (open-field test in rats; [11]): 12.2 ± 4.8; Squares crossed (open-field test in rats; [11]): 116.5 ± 9.9; reversal of the anxiety-inducing potential of MDMA (open-field test in rats; Table 5 model): only weak reversal effect |
| CC(=O)Oc1ccccc1C(=O)O [ASP, aspirin] | – | – | – | – | – | – | – | – | – | – | – | – | – | – | – | – | – | – | – | – | protein content in the gastric juice ([2]; compared to the vehicle control): significant increase; contents of DNA and protein in the gastric juice ([2]; pylorus ligated rats): appreciable increase; total carbohydrate/protein ratio in the gastric juice (index of mucin activity) ([2]; pylorus ligated rats): considerable decrease |
| CNC(C)Cc1ccc2c(c1)OCO2 (stereo not drawn) [MDMA, Methylenedioxymethylamphetamine] | – | – | – | – | – | – | – | – | – | – | – | – | – | – | – | – | – | – | – | – | Faecal pellets (open-field test in rats; 5 mg/Kg, i.p.): 6.7 ± 0.5; Immobility (open-field test in rats; 5 mg/Kg, i.p.): 69.3 ± 6.1; Rears (open-field test in rats; 5 mg/Kg, i.p.): 14.3 ± 4.2; Squares crossed (open-field test in rats; 5 mg/Kg, i.p.): 111.2 ± 8.0; Faecal pellets (open-field test in rats; 10 mg/Kg, i.p.): 8.0 ± 2.2; Immobility (open-field test in rats; 10 mg/Kg, i.p.): 80.1 ± 7.0; Rears (open-field test in rats; 10 mg/Kg, i.p.): 11.2 ± 3.9; Squares crossed (open-field test in rats; 10 mg/Kg, i.p.): 74.7 ± 5.5 |
| CC/C=C\C/C=C\C/C=C\C/C=C\C/C=C\C/C=C\CCC(=O)O [DHA, docosahexaenoic acid] | 12.55 ± 2.03 | 39.33 ± 2.04 | 12.78 ± 1.83 | 140.7 ± 20.5 | 2.5 ± 1.0 | 22.5 ± 3.5^b μg/dL | 309.4 ± 30.4 | 4.8 ± 1.2 | 15.0 ± 0.9 | 148.0 ± 16.7^b μg/100 mg | 2.8 ± 1.0^b μg/100 mg | 17.9 ± 0.9^b μg/dL | 308.9 ± 27.4 | 5.5 ± 1.0 | 14.7 ± 1.0 | 15.8 ± 4.0 | 28.1 ± 5.9 | 70 | 14.7 ± 3.8 | 25.0 ± 5.2 | Ulcer incidence (%) [6, 9]: 60%; Faecal pellets (open-field test in rats; [11]): 5.7 ± 4.1; Immobility (open-field test in rats; [11]): 59.9 ± 7.2; Rears (open-field test in rats; [11]): 14.0 ± 5.5; Squares crossed (open-field test in rats; [11]): 122.1 ± 5.5 |
